Usually EC50 stands for the concentration that produces a half-maximal response. A lower EC50 goes with a more potent agent.

This note sets out measurements from ChEMBL document CHEMBL1129876, “The synthesis and activity of spiroindane growth hormone secretagogues” (Bioorg Med Chem Lett, 1997).

The subject of experiment [1] is Canis familiaris. As to the kind of experiment: Tested for response in dogs after iv administration of 0.05 mg/kg; cured/treated is 0/1. The class given is functional, organism-based. Further details: dose 0.05 mg/kg. The following applies: Canis lupus familiaris.
The test system of experiment [2] is Canis familiaris. The experiment is described as follows: Tested for response in dogs after oral administration of 1 mg/kg; cured/treated is 1/1. It counts as functional, organism-based. The arrangement: dose 1 mg/kg. The following applies: Canis lupus familiaris.
For experiment [3], the system named is Canis familiaris. The experiment is described as follows: Tested for response in dogs after oral administration of 2 mg/kg; cured/treated is 0/1. The following applies: Canis lupus familiaris. Further details: dose 2 mg/kg. The class given is functional, organism-based.
For experiment [4], the system named is Canis familiaris. As to the kind of experiment: Tested for response in dogs after iv administration of 0.1 mg/kg; cured/treated is 1/1. The class given is functional, organism-based. The arrangement: dose 0.1 mg/kg. The following applies: Canis lupus familiaris.
The species entered for experiment [5] is Rattus norvegicus. The experiment is described as follows: The compound was evaluated for its ability to release growth hormone from rat pituitary cells. It counts as functional, cell-based. The following applies: Pituitary gland cell.
Experiment [6] relates to Canis familiaris. The experiment is described as follows: Tested for response in dogs after iv administration of 0.1 mg/kg; cured/treated is 0/1. It counts as functional, organism-based. Further details: dose 0.1 mg/kg. The following applies: Canis lupus familiaris.
Experiment [7] relates to Canis familiaris. As to the kind of experiment: Tested for response in dogs after peroral administration of 0.5 mg/kg; cured/treated is 1/2. It counts as functional, organism-based. The arrangement: dose 0.5 mg/kg. The following applies: Canis lupus familiaris.
Experiment [8] relates to Canis familiaris. As to the kind of experiment: Tested for response in dogs after peroral administration of 1 mg/kg; cured/treated is 2/2. The following applies: Canis lupus familiaris. It counts as functional, organism-based. The arrangement: dose 1 mg/kg.
In experiment [9] the test system is Canis familiaris. As to the kind of experiment: Tested for response in dogs after iv administration of 0.05 mg/kg; cured/treated is 1/1. The class given is functional, organism-based. The arrangement: dose 0.05 mg/kg. The following applies: Canis lupus familiaris.
The subject of experiment [10] is Canis familiaris. As to the kind of experiment: Tested for response in dogs after iv administration of 0.05 mg/kg; cured/treated is 1/2. Further details: dose 0.05 mg/kg. The following applies: Canis lupus familiaris. It counts as functional, organism-based.
Experiment [11] relates to Canis familiaris. As to the kind of experiment: Tested for response in dogs after oral administration of 0.5 mg/kg; cured/treated is 1/2. It counts as functional, organism-based. The arrangement: dose 0.5 mg/kg. The following applies: Canis lupus familiaris.
Experiment [12] deals with Canis familiaris. The experiment is described as follows: Tested for response in dogs after oral administration of 1 mg/kg; cured/treated is 2/2. The class given is functional, organism-based. Further details: dose 1 mg/kg. The following applies: Canis lupus familiaris.
Experiment [13] deals with Canis familiaris. As to the kind of experiment: Tested for response in dogs after peroral administration of 0.25 mg/kg; cured/treated is 2/2. The class given is functional, organism-based. Further details: dose 0.25 mg/kg. The following applies: Canis lupus familiaris.
Experiment [14] relates to Canis familiaris. As to the kind of experiment: Tested for response in dogs after iv administration of 0.025 mg/kg; cured/treated is 1/1. It counts as functional, organism-based. The arrangement: dose 0.025 mg/kg. The following applies: Canis lupus familiaris.
For experiment [15], the system named is Canis familiaris. The experiment is described as follows: Tested for response in dogs after peroral administration of 0.125 mg/kg; cured/treated is 1/2. The class given is functional, organism-based. The arrangement: dose 0.125 mg/kg. The following applies: Canis lupus familiaris.

With `CC(C)(N)C(=O)N[C@H](Cc1c[nH]c2ccccc12)C(=O)N1CCC2(CCc3ccccc32)CC1`, the Response result in experiment [1], in experiment [2], in [3] and in [4] was “cured/treated is 0/1” in each case.

In experiment [5], `CC(C)(N)C(=O)N[C@H](Cc1c[nH]c2ccccc12)C(=O)N1CCC2(CC1)c1ccccc1CC2O` (stereo partly specified) came in with an EC50 of 65 nM.

For the molecule `CC(C)(N)C(=O)N[C@H](CCCc1ccccc1)C(=O)N1CCC2(CCc3ccccc32)CC1`, the Response result in experiment [6], in [7] and in experiment [8] was “cured/treated is 0/1” in each case. The molecule also gave an EC50 in experiment [5] of 10 nM.

Consider `CC(C)(N)C(=O)N[C@H](COCc1ccccc1)C(=O)N1CCC2(CC1)CC(=O)c1ccccc12`, for which the EC50 in [5] is 4.8 nM.

Take `CC(C)(N)C(=O)N[C@H](Cc1c[nH]c2ccccc12)C(=O)N1CCC2(CC1)CC(O)c1ccccc12` (stereo partly specified): the Response entry in [7], in [8] and in experiment [9] was “cured/treated is 1/1” in each case. For the same molecule, the EC50 in [5] was determined as 0.6 nM.

The molecule `CC(C)(N)C(=O)N[C@H](COCc1ccccc1)C(=O)N1CCC2(CC1)CC(O)c1ccccc12` (stereo partly specified) displayed an EC50 in [5] of 4 nM.

In the case of `CC(C)(N)C(=O)N[C@H](COCc1ccccc1)C(=O)N1CCC2(CCc3ccccc32)CC1`, the EC50 in [5] was 17 nM.

`CC(C)(N)C(=O)N[C@H](Cc1c[nH]c2ccccc12)C(=O)N1CCC2(CC1)CC(=O)c1ccccc12`: the Response entry in experiment [10], in [11] and in experiment [12] was “cured/treated is 1/2” throughout. This molecule yielded an EC50 in experiment [5] of 1.2 nM.

`CC(C)(N)C(=O)N[C@H](CCCc1ccccc1)C(=O)N1CCC2(CC1)CC(O)c1ccccc12` (stereo partly specified) returned an EC50 in experiment [5] of 0.72 nM.

In experiment [5], `CC(C)(N)C(=O)N[C@H](Cc1c[nH]c2ccccc12)C(=O)N1CCC2(CC1)c1ccccc1C(O)C2O` (stereo partly specified) displayed a concentration for a half-maximal effect (EC50) of 30 nM.

On to `CC(C)(N)C(=O)N[C@H](CCCc1ccccc1)C(=O)N1CCC2(CC1)CC(=O)c1ccccc12`, for which the Response result in experiment [13], in experiment [14] and in [15] was “cured/treated is 1/1” throughout. The molecule further displayed an EC50 in experiment [5] of 0.8 nM.
